This assay has as its target T1, HpaC (Gc HpaC, FA1090 HpaC) (Neisseria gonorrhoeae, UniProt Q5FAG3).
T1 construct: gene NGO_0059; His6-tagged full-length HpaC from pET28a, expressed in E. coli BL21(DE3); 166 residues; co-purifies with FAD; oligomer not measured (modelled on TftC homodimer)
The assay can be described thus: FAD released from purified protein by heat denaturation, coupled-enzyme fluorescent probe kit. It counts as binding. Conditions: 0.5 µM protein, with and without 95 °C for 5 min; room temperature; co-purified FAD.

T1 sequence (Q5FAG3 entry or part of it): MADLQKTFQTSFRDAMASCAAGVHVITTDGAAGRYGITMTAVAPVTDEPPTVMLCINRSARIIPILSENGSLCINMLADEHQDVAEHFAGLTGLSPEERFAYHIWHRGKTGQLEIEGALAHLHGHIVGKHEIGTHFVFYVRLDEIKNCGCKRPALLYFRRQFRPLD

On to `Cc1cc2nc3c(=O)[nH]c(=O)nc-3n(C[C@H](O)[C@H](O)[C@H](O)COP(=O)(O)OP(=O)(O)OC[C@H]3O[C@@H](n4cnc5c(N)ncnc54)[C@H](O)[C@@H]3O)c2cc1C` [FAD], for which the “FAD released from purified protein by heat denaturation, coupled-enzyme fluoresc” value is “We purified Gc HpaC and noticed an FAD signal in the absence of heat”.

Values taken from article PMC12558477, “Flavin affinity for the reductase HpaC differentially sensitizes Neisseria gonorrhoeae during Type IV pilus-dependent killing” (PLOS Pathogens, 2025).
